In one experiment the test system is HEK293. The experiment is described as follows: cells. The format is functional, Homo sapiens, ATCC CRL1573. Particulars: Homo sapiens, ATCC CRL1573, HEK293; ASSAY_TEST Inhibition of Cell Viability; detection method Resazurin; Fluorescence (ex560/em590); MEDIA DMEM with 10% FBS; plate type 384well; TC; CORNING #3712; time 18 hr; read-out: CC50.
A further experiment deals with Staphylococcus aureus. Briefly: microbe, parasite or virus in culture. Particulars: ATCC 43300, 18 h, ASSAY_TEST Inhibition of Bacterial Growth, detection method Absorption (OD600), MEDIA CAMHB, plate type 384well, NBS, CORNING #3640.
Another experiment relates to Escherichia coli. The experiment is described as follows: microbe, parasite or virus in culture. The following applies: ATCC 25922, 18 h, ASSAY_TEST Inhibition of Bacterial Growth, detection method Absorption (OD600), MEDIA CAMHB, plate type 384well, NBS, CORNING #3640.
For a further experiment, the system named is Klebsiella pneumoniae. The experiment is described as follows: microbe, parasite or virus in culture. The following applies: ATCC 700603, 18 h, ASSAY_TEST Inhibition of Bacterial Growth, detection method Absorption (OD600), MEDIA CAMHB, plate type 384well, NBS, CORNING #3640.
The next experiment relates to Pseudomonas aeruginosa. Briefly: microbe, parasite or virus in culture. The following applies: ATCC 27853, 18 h, ASSAY_TEST Inhibition of Bacterial Growth, detection method Absorption (OD600), MEDIA CAMHB, plate type 384well, NBS, CORNING #3640.
Another experiment concerns Acinetobacter baumannii. Briefly: microbe, parasite or virus in culture. Particulars: ATCC 19606, 18 h, ASSAY_TEST Inhibition of Bacterial Growth, detection method Absorption (OD600), MEDIA CAMHB, plate type 384well, NBS, CORNING #3640.
The subject of a further experiment is Candida albicans. Briefly: microbe, parasite or virus in culture. Particulars: ATCC 90028, ASSAY_TEST Inhibition of Fungal Growth, detection method Absorption (OD530), plate type 384well, NBS, CORNING #3640.

SMILES strings stand for the structures. Converted amounts (≈) assume the structure as drawn.

Description for Acinetobacter baumannii: Antibacterial activity against Acinetobacter baumannii ATCC 19606 (CO-ADD:GN_034); MIC in CAMBH media using NBS plates, by OD600
Description for Candida albicans: Antifungal activity against Candida albicans ATCC 90028 (CO-ADD:FG_001); MIC in YNB media using NBS plates, by OD630
Description for Cryptococcus neoformans: Antifungal activity against Cryptococcus neoformans H99 ATCC 208821 (CO-ADD:FG_002); MIC in YNB media using NBS plates, by Resazurin OD(600-570)
Description for Escherichia coli: Antibacterial activity against Escherichia coli ATCC 25922 (CO-ADD:GN_001); MIC in CAMBH media using NBS plates, by OD(600)
Description for Klebsiella pneumoniae: Antibacterial activity against Klebsiella pneumoniae MDR ATCC 70063 (CO-ADD:GN_003); MIC in CAMBH media using NBS plates, by OD(600)
Description for Pseudomonas aeruginosa: Antibacterial activity against Pseudomonas aeruginosa ATCC 27853 (CO-ADD:GN_042); MIC in CAMBH media using NBS plates, by OD(600)
Description for Staphylococcus aureus: Antibacterial activity against Staphylococcus aureus MRSA ATCC 43300 (CO-ADD:GP_020); MIC in CAMBH media, using NBS plates, by OD(600)

Take `CN(C)CCCn1cnc(NC(=O)c2cc(NC(=O)c3cc(NC(=O)c4cc5ccccc5cn4)cn3C)cn2C)c1.O=C(O)C(F)(F)F`: the CC50 in the experiment on HEK293 was 7.3 µg/mL. For the same compound, the MIC in the experiment on Cryptococcus neoformans is 16 µg/mL; against Staphylococcus aureus it was above 32 µg/mL; against Escherichia coli, above 32 µg/mL; in the experiment on Klebsiella pneumoniae, above 32 µg/mL; with Pseudomonas aeruginosa it was above 32 µg/mL; in the experiment with Acinetobacter baumannii, above 32 µg/mL. Further, the MIC in the experiment on Candida albicans was above 32 µg/mL.
`COc1cccc(C(=N)Nc2cc(C(=O)Nc3cc(C(=O)Nc4cc(C(=O)NCCCN(C)C)n(CCC(C)C)c4)n(C)c3)n(C)c2)c1`: in the experiment on HEK293, the CC50 is above 32 µg/mL. For the same compound, the MIC against Cryptococcus neoformans, in the experiment with Staphylococcus aureus, in the experiment with Escherichia coli, against Klebsiella pneumoniae, with Pseudomonas aeruginosa and against Acinetobacter baumannii was above 32 µg/mL throughout. This compound also displayed an MIC against Candida albicans above 32 µg/mL.
Consider `Cn1cc(NC(=O)c2cc(NC(=O)c3ccc(/C=C/c4ccc(C(F)(F)F)cc4)cc3)cn2C)cc1C(=O)NCCN1CCOCC1.O=C(O)C(F)(F)F`, for which the CC50 with HEK293 was above 32 µg/mL. Besides, the MIC in the experiment with Cryptococcus neoformans, in the experiment with Staphylococcus aureus, against Escherichia coli, against Klebsiella pneumoniae, in the experiment on Pseudomonas aeruginosa and in the experiment with Acinetobacter baumannii was above 32 µg/mL in each case. The MIC against Candida albicans is above 32 µg/mL.
Regarding `COC1CCN(CCNC(=O)c2cc(NC(=O)c3cc(NC(=O)c4ccc(/C=C/c5cnc6ccccc6c5)cc4)cn3C)cn2C)CC1`, in the experiment on HEK293, the CC50 stood at 2.89 µg/mL (≈ 4.38 µM). Also, the MIC against Cryptococcus neoformans was 16 µg/mL (≈ 24.3 µM); against Staphylococcus aureus it was at most 0.25 µg/mL; against Escherichia coli, above 32 µg/mL; in the experiment on Klebsiella pneumoniae it was above 32 µg/mL; against Pseudomonas aeruginosa it was above 32 µg/mL; against Acinetobacter baumannii, above 32 µg/mL. In the experiment on Candida albicans, this compound came in with an MIC of 32 µg/mL (≈ 48.5 µM).
For the compound `COC1CCN(CCNC(=O)c2cc(NC(=O)c3cc(NC(=O)c4ccc(/C=C/c5ccc(N(C)C)cc5)nc4)cn3C)cn2C)CC1.O=C(O)C(F)(F)F.O=C(O)C(F)(F)F`, in the experiment with HEK293, the CC50 turned out to be 1.28 µg/mL. The MIC against Cryptococcus neoformans was 2 µg/mL; against Staphylococcus aureus, at most 0.25 µg/mL; in the experiment with Escherichia coli, above 32 µg/mL; with Klebsiella pneumoniae it was above 32 µg/mL; with Pseudomonas aeruginosa, above 32 µg/mL; against Acinetobacter baumannii, above 32 µg/mL. This compound also returned an MIC against Candida albicans of 2 µg/mL.
As for `Cn1cc(NC(=O)c2cc(NC(=O)c3ccc(/C=C/c4ccc5ccccc5n4)cc3)cn2C)cc1C(=O)NCCN1CCOCC1.O=C(O)C(F)(F)F`, the cytotoxic concentration (CC50) in the experiment with HEK293 was found to be 1.95 µg/mL. Further, the MIC against Cryptococcus neoformans was 4 µg/mL; in the experiment with Staphylococcus aureus it was 4 µg/mL; against Escherichia coli it was above 32 µg/mL; with Klebsiella pneumoniae, above 32 µg/mL; against Pseudomonas aeruginosa, above 32 µg/mL; against Acinetobacter baumannii, above 32 µg/mL. The MIC in the experiment on Candida albicans is 4 µg/mL.
Consider `COc1cccc(/C=C/c2ccc(C(=O)Nc3cc(C(=O)Nc4cc(C(=O)NCCCN(C)C)n(C)c4)n(C)c3)cc2)c1.O=C(O)C(F)(F)F`, for which the CC50 with HEK293 was found to be 11.4 µg/mL. Also, the MIC against Cryptococcus neoformans, in the experiment with Staphylococcus aureus, in the experiment with Escherichia coli, in the experiment on Klebsiella pneumoniae, against Pseudomonas aeruginosa and in the experiment with Acinetobacter baumannii was above 32 µg/mL each time. The MIC with Candida albicans is above 32 µg/mL.
For the compound `CC(C)CCc1sc(NC(=O)c2cc(NC(=O)c3cc4ccccc4cn3)cn2C)nc1C(=O)NCCCN(C)C.O=C(O)C(F)(F)F`, in the experiment with HEK293, the CC50 is 2.17 µg/mL. Also, the MIC against Cryptococcus neoformans, against Staphylococcus aureus, against Escherichia coli, against Klebsiella pneumoniae, in the experiment on Pseudomonas aeruginosa and with Acinetobacter baumannii was above 32 µg/mL each time. In addition, the MIC against Candida albicans was above 32 µg/mL.
On to `Cn1cc(NC(=O)c2cc(NC(=O)c3ccc(/C=C/c4cc5ccccc5nc4On4nnc5ccccc54)cc3)cn2C)cc1C(=O)NCCN1CCOCC1.O=C(O)C(F)(F)F`, for which, in the experiment with HEK293, the CC50 was above 32 µg/mL. For the same compound, the MIC in the experiment on Cryptococcus neoformans, in the experiment on Staphylococcus aureus, in the experiment on Escherichia coli, with Klebsiella pneumoniae, in the experiment on Pseudomonas aeruginosa and against Acinetobacter baumannii was above 32 µg/mL each time. The compound also gave an MIC with Candida albicans above 32 µg/mL.
Take `CN(C)c1ccc(/C=C/c2ccc(C(=O)Nc3cc(C(=O)Nc4cc(C(=O)NCCN5CCOCC5)n(C)c4)n(C)c3)cn2)cc1.O=C(O)C(F)(F)F`: in the experiment with HEK293, the CC50 is 1.11 µg/mL. In addition, the MIC against Cryptococcus neoformans is 1 µg/mL; with Staphylococcus aureus, 1 µg/mL; against Escherichia coli, above 32 µg/mL; in the experiment on Klebsiella pneumoniae, above 32 µg/mL; in the experiment with Pseudomonas aeruginosa it was above 32 µg/mL; in the experiment on Acinetobacter baumannii it was above 32 µg/mL. In the experiment with Candida albicans, this compound came in with an MIC of 2 µg/mL.
As for `CC(C)CCc1sc(NC(=O)c2cc(NC(=O)c3cc(NC(=N)c4cnc5ccccc5c4)cn3C)cn2C)nc1C(=O)NCCCN(C)C.O=C(O)C(F)(F)F.O=C(O)C(F)(F)F`, the 50% cytotoxic concentration (CC50) in the experiment with HEK293 amounted to 1.18 µg/mL. Moreover, the MIC is at most 0.25 µg/mL in the experiment on Cryptococcus neoformans; 1 µg/mL with Staphylococcus aureus; above 32 µg/mL against Escherichia coli; above 32 µg/mL against Klebsiella pneumoniae; above 32 µg/mL against Pseudomonas aeruginosa; above 32 µg/mL with Acinetobacter baumannii. The same compound registered an MIC in the experiment on Candida albicans above 32 µg/mL.
For `Cn1cc(NC(=O)c2cc(NC(=O)c3cc4ccccc4cn3)cn2C)cc1C(=O)NCCN1CCOCC1.O=C(O)C(F)(F)F`, in the experiment with HEK293, the CC50 was above 32 µg/mL. In addition, the MIC in the experiment with Cryptococcus neoformans, in the experiment on Staphylococcus aureus, in the experiment with Escherichia coli, in the experiment with Klebsiella pneumoniae, in the experiment with Pseudomonas aeruginosa and in the experiment on Acinetobacter baumannii was above 32 µg/mL each time. Further, the MIC against Candida albicans was above 32 µg/mL.
Consider `CSc1ccc(/C=C/c2ccc3cc(C(=O)Nc4cc(C(=O)Nc5cc(C(=O)NCCN6CCOCC6)n(C)c5)n(C)c4)ccc3n2)cc1.O=C(O)C(F)(F)F`, for which the cytotoxic concentration (CC50) with HEK293 is above 32 µg/mL. For the same compound, the MIC with Cryptococcus neoformans was 8 µg/mL; against Staphylococcus aureus it was above 32 µg/mL; against Escherichia coli, above 32 µg/mL; in the experiment with Klebsiella pneumoniae it was above 32 µg/mL; with Pseudomonas aeruginosa, above 32 µg/mL; in the experiment on Acinetobacter baumannii, above 32 µg/mL. Moreover, in the experiment on Candida albicans, the MIC was 4 µg/mL.
For the compound `Cn1cc(NC(=O)c2cc(NC(=O)c3ccc(/C=C/c4cnc5ccccc5c4)cc3)cn2C)cc1C(=O)NCC[N+]1([O-])CCCCC1.O=C(O)C(F)(F)F`, the cytotoxic concentration (CC50) in the experiment on HEK293 worked out at 2.97 µg/mL. For the same compound, the MIC in the experiment with Cryptococcus neoformans, with Staphylococcus aureus, with Escherichia coli, in the experiment with Klebsiella pneumoniae, in the experiment with Pseudomonas aeruginosa and in the experiment with Acinetobacter baumannii was above 32 µg/mL each time. The compound also came in with an MIC with Candida albicans above 32 µg/mL.
For the compound `COC(=O)c1ccc(C(=O)Nc2cc(C(=O)Nc3cc(C(=O)Nc4nc(C(=O)NCCCN(C)C)c(CCC(C)C)s4)n(C)c3)n(C)c2)cc1.O=C(O)C(F)(F)F`, in the experiment on HEK293, the CC50 is 2.72 µg/mL. The MIC in the experiment with Cryptococcus neoformans, in the experiment with Staphylococcus aureus, against Escherichia coli, in the experiment on Klebsiella pneumoniae, against Pseudomonas aeruginosa and against Acinetobacter baumannii was above 32 µg/mL throughout. In the experiment with Candida albicans, the MIC was above 32 µg/mL.
Consider `Cn1cc(NC(=O)c2ccc(/C=C/c3cnc4ccccc4c3)cc2)cc1C(=O)Nc1cc(C(=O)NCCN2CCOCC2)n(CCCc2cn(CCc3ccccc3)nn2)c1.O=C(O)C(F)(F)F`, for which the CC50 in the experiment with HEK293 was above 32 µg/mL. In addition, the MIC was 16 µg/mL with Cryptococcus neoformans; above 32 µg/mL in the experiment on Staphylococcus aureus; above 32 µg/mL against Escherichia coli; above 32 µg/mL in the experiment with Klebsiella pneumoniae; above 32 µg/mL in the experiment on Pseudomonas aeruginosa; above 32 µg/mL against Acinetobacter baumannii. The MIC in the experiment with Candida albicans is above 32 µg/mL.
As to `Cn1cc(NC(=O)c2cc(NC(=O)c3cc(NC(=O)c4ccc(Cl)cc4Cl)cn3C)cn2C)cc1C(=O)NCCCN1CCOCC1.O=C(O)C(F)(F)F`, the CC50 in the experiment with HEK293 was determined as 7.32 µg/mL. The MIC in the experiment with Cryptococcus neoformans, against Staphylococcus aureus, with Escherichia coli, with Klebsiella pneumoniae, with Pseudomonas aeruginosa and against Acinetobacter baumannii was above 32 µg/mL in each case. Moreover, the MIC with Candida albicans is above 32 µg/mL.
For the compound `CC(C)c1sc(NC(=O)c2cc(NC(=O)c3cc(NC(=O)c4cc(NC=O)cn4C)cn3C)cn2C)nc1C(=O)NCCCN(C)C.O=C(O)C(F)(F)F`, in the experiment on HEK293, the CC50 was above 32 µg/mL. In addition, the MIC against Cryptococcus neoformans was above 32 µg/mL; against Staphylococcus aureus, 16 µg/mL; with Escherichia coli, above 32 µg/mL; in the experiment on Klebsiella pneumoniae, above 32 µg/mL; in the experiment on Pseudomonas aeruginosa, above 32 µg/mL; with Acinetobacter baumannii, above 32 µg/mL. Besides, the MIC with Candida albicans was above 32 µg/mL.
As for `CN(C)CCCNC(=O)c1cc(NC(=O)c2cc(NC(=O)c3cc(NC(=N)c4cnc5ccccc5c4)cn3C)cn2C)cn1C.O=C(O)C(F)(F)F.O=C(O)C(F)(F)F`, in the experiment on HEK293, the CC50 is above 32 µg/mL. The MIC with Cryptococcus neoformans is 8 µg/mL; in the experiment on Staphylococcus aureus, above 32 µg/mL; in the experiment with Escherichia coli it was above 32 µg/mL; in the experiment on Klebsiella pneumoniae, above 32 µg/mL; in the experiment with Pseudomonas aeruginosa it was above 32 µg/mL; in the experiment on Acinetobacter baumannii it was above 32 µg/mL. Also, the MIC in the experiment with Candida albicans was above 32 µg/mL.

The values are drawn from ChEMBL document CHEMBL4513139, “CO-ADD screening of University of Strathclyde (UK) compounds”.
